From patent US10682371B2, “Small molecule conjugates specifically activated in tumor microenvironment for targeting and use thereof” (priority 2014, dated 2020) come the findings set out here.

Like-named read-outs stand apart in the source and are kept apart here.

The test system of one assay is D121 lung tumor cells. The format is in vivo, C57 mice. The settings on record: drugs weekly for 4 weeks. The gist of the method: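 Endpoint is tumor inhibition rate from tumor size (mm^3) after weekly drug treatment for 4 weeks, begun once s.c. tumors from 10^6 live D121 cells reached 0.3-0.4 cm. Before challenge, C57 mice received three i.p. doses of 5×10^5 irradiated D121 cells, two weeks apart, or saline.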

A further assay concerns tumor CD8+ T cells. Type of assay: in vivo, C57 mice. To be noted: CD8 positive cells in CD45 positive cells of tumor. The gist of the method:
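Flow cytometric ratio of CD8⁺ to CD45⁺ cells in dissociated tumour. Cell suspensions were labelled with CD45-PE and CD8-FITC for 1 h at room temperature, then washed twice in phosphate buffer with 1% fetal bovine serum.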

Assay [1] deals with Human prostate cancer PC-3 cells / Panc-1 cells. Put plainly: Tumor treatment in nude mice (PC-3 cells purchased, Panc-1 cells injected; Examples 22, 32, 42). Type of assay: in vivo. The settings on record: nude mice, IV once weekly for four weeks, Paclitaxel 8 mg/kg. Here is the method: 1) Human prostate cancer PC-3 cells were purchased from American type culture collection (ATCC) and identified according the specification provided by ATCC. Cells were cultivated in DMEM culture solution containing 10% fetal bovine serum at 37° C. and 5% CO2. The cells were passaged for every three days and cells within the 15th passage were used.
2) Production of tumor. 5×10^6Panc-1 cells were subcutaneously injected to the back of the nude mice. Mice were randomly grouped after the tumor reached at least 100 mm^3. Then treatment began and the day on which the treatment began was day 1.
The control group was administered by physiological saline. Drugs were administered once weekly for four weeks.
According to the clinical application of B1, B2, B3 and B4, drugs were intravenously injected (IV). […] The control group was administered by physiological saline. Drugs were administered once weekly for four weeks.

Another assay deals with 4T1 cells. As to the kind of experiment: BALB/C mice model for tumor metastasis (4T1, lung metastases). The format is in vivo. To be noted: IV every three days for 4 times, Paclitaxel 4 mg/kg. Here is the method: 1) 4T1 cells were purchased from American type culture collection (ATCC) and identified according the specification provided by ATCC. Cells were cultivated in DMEM culture solution containing 10% fetal bovine serum at 37° C. and 5% CO2. The cells were passaged for every three days and cells within the 15th passage were used.
2) Production of tumor metastasis. 10^6 […] were subcutaneously injected to the back of the BALB/C mice. Mice were randomly grouped after the tumor grew to about 1.5 cm. The subcutaneous tumor was removed by surgery and drug treatment began. Mice were killed after anesthesia on day 27. The whole lung was taken out and put into Bouin's solution for staining. The number of the tumor metastasized to lung was counted with anatomical microscope.
(§1) The control group was administered by physiological saline. Drugs were administered once for every three days for 4 times.
as §1
According to the clinical application of B1, B2, B3 and B4, drugs were intravenously injected (IV). […] The control group was administered by physiological saline. Drugs were administered once for every three days for 4 times.
According to the clinical application of D1, D2, D3 and D4, drugs were intravenously injected (IV). […] The control group was administered by physiological saline. Drugs were administered once for every three days for 4 times.

The test system of assay [2] is tumor-derived immunosuppressive T cells (T reg: CD4+, CD25+, Foxp3+); CD8 T cells. Put plainly: Immunological stimulation test in mice receiving tumor treatment (T reg, CD8 T cells). The format is in vivo. The settings on record: mice receiving tumor treatment. An excerpt:
We further studied the immunological stimulation property of Legutaxel. […] On the contrary, the index for tumor-derived immunosuppressive T cells in treatment group by Legutaxel decreased due to targeted chemotherapy (see panels in FIGS. 3A and 3B).

The mark [3] stands for this setting: D121 immunized C57 mice, Day 18 (Example 23).
The mark [4] stands for this setting: Table 26, A1-A4 24 mg/kg, Day 10.
[5] abbreviates: 4T1, BALB/C mice, lung, day 27, S1′-S4′ 12 mg/kg.
[6] abbreviates: Table 28, BALB/C mice, 4T1, lung metastases day 27, A1-A4 12 mg/kg.

Take Paclitaxel [reference compound]: the “Size of tumor (mm^3) Day 18” value with D121 lung tumor cells (setting [3]) came to 1210.28 ± 375.46 mm^3. Moreover, the “inhibitory rate on tumor % Day 18” value in the assay on D121 lung tumor cells (setting [3]) amounted to 23.1%; in the assay on D121 lung tumor cells (Table 27, immunized C57 mice, D121 lung tumor, Day 18), 20.47%. Besides, the “CD8: CD45 (%)” value in the assay with tumor CD8+ T cells (D121 immunized C57 mice (Example 23)) is listed as 6.6%; in the assay on tumor CD8+ T cells (Table 27, flow cytometry, immunized C57 mice, D121), 5.7%. In addition, the “Size of tumor (mm^3) Day 10” value in assay [1] (setting [4]) is 123.04 ± 125.3 mm^3. For the same substance, the “inhibitory rate on tumor Day 10” value is given as 58.3% in assay [1] (setting [4]) and 7.5% in assay [1] (S1′-S4′ 24 mg/kg, Day 10). Besides, the “Size of tumor (mm^3) Day 24” value in assay [1] (Table 26, A1-A4 24 mg/kg) is recorded as 252.49 ± 248.5 mm^3; in assay [1] (S1′-S4′ 24 mg/kg), 249.54 ± 95.46 mm^3. Further, the “inhibitory rate on tumor Day 24” value is on record as 33.7% in assay [1] (Table 26, A1-A4 24 mg/kg) and 27.9% in assay [1] (S1′-S4′ 24 mg/kg). Further, the “Inhibitory rate on metastasis” value with 4T1 cells (setting [5]) came to 5.9%; in the assay on 4T1 cells (setting [6]) it was 6.8%. Besides, the “Number of metastasized tumor” value is recorded as 128 ± 25 in the assay with 4T1 cells (setting [5]) and 137 ± 32 in the assay with 4T1 cells (setting [6]). Besides, the “Index for tumor-derived immunosuppressive T cells (T reg: CD4+, CD25+, Foxp3+)” value in assay [2] was “greatly increased”.
